Molecular target: T1, CDC42 BPB (MRCKB) (Homo sapiens, UniProt Q9Y5S2)
T1 construct: purchased Thermo Fisher Scientific (Life Technologies) SelectScreen
Test: SelectScreen Z'LYTE
Format: biochemical
In short: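 SelectScreen broad panel; activity (Z'LYTE, Adapta) plus binding formats. ATP: Km app for CSF1R Z'LYTE; 10 for CAMK1 Adapta. Readout = % per kinase.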

T1 sequence (Q9Y5S2 whole entry): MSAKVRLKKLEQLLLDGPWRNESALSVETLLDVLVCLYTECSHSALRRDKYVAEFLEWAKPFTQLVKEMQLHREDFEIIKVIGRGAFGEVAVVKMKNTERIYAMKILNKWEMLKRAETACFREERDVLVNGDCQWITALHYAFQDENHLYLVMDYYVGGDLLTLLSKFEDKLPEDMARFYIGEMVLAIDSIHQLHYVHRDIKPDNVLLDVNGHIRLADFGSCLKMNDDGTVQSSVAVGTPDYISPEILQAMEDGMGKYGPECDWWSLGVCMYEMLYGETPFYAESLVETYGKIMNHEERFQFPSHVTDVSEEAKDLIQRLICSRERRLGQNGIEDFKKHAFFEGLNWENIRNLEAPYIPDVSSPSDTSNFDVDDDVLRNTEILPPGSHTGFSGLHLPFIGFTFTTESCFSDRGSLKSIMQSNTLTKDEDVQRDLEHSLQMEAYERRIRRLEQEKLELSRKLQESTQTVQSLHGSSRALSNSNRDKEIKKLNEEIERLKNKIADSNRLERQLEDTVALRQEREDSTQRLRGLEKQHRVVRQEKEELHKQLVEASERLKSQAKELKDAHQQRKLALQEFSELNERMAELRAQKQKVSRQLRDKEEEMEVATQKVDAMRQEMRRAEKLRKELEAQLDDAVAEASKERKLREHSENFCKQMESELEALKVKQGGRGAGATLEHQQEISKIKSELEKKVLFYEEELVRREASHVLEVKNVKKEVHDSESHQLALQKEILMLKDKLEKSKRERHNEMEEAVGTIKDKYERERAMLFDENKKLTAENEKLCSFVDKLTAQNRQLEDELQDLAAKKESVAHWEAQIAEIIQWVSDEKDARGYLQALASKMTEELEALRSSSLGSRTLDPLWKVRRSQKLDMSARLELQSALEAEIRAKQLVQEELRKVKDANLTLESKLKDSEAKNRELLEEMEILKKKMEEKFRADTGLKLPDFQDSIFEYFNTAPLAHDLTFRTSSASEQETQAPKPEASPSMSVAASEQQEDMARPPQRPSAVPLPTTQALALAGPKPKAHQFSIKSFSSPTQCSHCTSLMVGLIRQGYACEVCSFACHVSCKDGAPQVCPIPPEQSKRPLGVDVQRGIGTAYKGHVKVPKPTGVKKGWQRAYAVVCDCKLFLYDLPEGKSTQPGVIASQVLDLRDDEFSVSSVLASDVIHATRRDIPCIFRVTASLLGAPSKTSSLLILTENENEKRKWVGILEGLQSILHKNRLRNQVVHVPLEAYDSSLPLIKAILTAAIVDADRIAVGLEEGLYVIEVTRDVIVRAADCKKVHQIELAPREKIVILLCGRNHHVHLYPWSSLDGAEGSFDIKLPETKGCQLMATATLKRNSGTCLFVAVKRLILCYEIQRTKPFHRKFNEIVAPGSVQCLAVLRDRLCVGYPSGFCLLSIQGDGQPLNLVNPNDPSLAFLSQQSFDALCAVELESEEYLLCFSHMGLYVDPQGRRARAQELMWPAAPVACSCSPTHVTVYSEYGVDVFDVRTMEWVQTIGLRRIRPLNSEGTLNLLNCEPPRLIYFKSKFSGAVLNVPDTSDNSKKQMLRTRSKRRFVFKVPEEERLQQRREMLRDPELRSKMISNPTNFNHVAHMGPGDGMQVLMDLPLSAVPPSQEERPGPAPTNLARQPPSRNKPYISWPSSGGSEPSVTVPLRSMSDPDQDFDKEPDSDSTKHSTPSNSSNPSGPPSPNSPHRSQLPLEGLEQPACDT

CN(C(=O)CN1CCOCC1)c1ccc2sc3c(-c4cccc5c(=O)cc(N6CC7CCC(C6)O7)oc45)cccc3c2c1 [NU5455]
inhibition at 1 µM: -2.5%

From publication PMC6934184, “Selective DNA-PKcs inhibition extends the therapeutic index of localized radiotherapy and chemotherapy” (The Journal of Clinical Investigation, 2019)
